Experiments:
Format in all cases: functional
Pyricularia oryzae [1] = test: Fungicidal activity against Magnaporthe oryzae assessed as rice blast disease control at 31.3 ppm foliar application for 24 hr before inoculation at 27 +/- 2 degC measured after 5 days by preventive manner
Podosphaera fuliginea [2] = test: Fungicidal activity against Podosphaera fuliginea assessed as cucumber powdery mildew control at 2 ppm foliar application 24 hr before inoculation at 23 +/- 2 degC by preventive manner
Botrytis cinerea [3] = test: Fungicidal activity against Botryotinia fuckeliana assessed as cucumber gray mold disease control at 7.8 ppm foliar application […] at 22 +/- 2 degC by preventive manner
[4] = test system: Blumeria graminis f. sp. tritici; test: Fungicidal activity against Blumeria graminis f. sp. tritici assessed as wheat powdery mildew disease control at 2 ppm foliar application for 48 hr before inoculation by preventive manner
Thanatephorus cucumeris [5] = test: Fungicidal activity against Thanatephorus cucumeris assessed as rice sheath blight disease control at 31.3 ppm foliar application for 24 hr before inoculation at 26 +/- 2 degC measured after 5 days by preventive manner
[6] = test system: Pseudoperonospora cubensis; test: Fungicidal activity against Pseudoperonospora cubensis assessed as cucumber downy mildew disease control at 2 ppm foliar application 24 hr before inoculation onto the abaxial(untreated) surface of leaf by preventive manner
[7] = test system: Pseudoperonospora cubensis; test: Fungicidal activity against Pseudoperonospora cubensis assessed as cucumber downy mildew disease control at 2 ppm foliar application 24 hr before inoculation onto the adaxial(treated) surface of leaf by preventive manner
Thanatephorus cucumeris [8] = test: Fungicidal activity against Thanatephorus cucumeris assessed as rice sheath blight disease control at 7.8 ppm foliar application for 24 hr before inoculation at 26 +/- 2 degC measured after 5 days by preventive manner
Pyricularia oryzae [9] = test: Fungicidal activity against Magnaporthe oryzae assessed as rice blast disease control at 2 ppm foliar application for 24 hr after inoculation at 27 +/- 2 degC measured after 5 days by curative manner
Pyricularia oryzae [10] = test: Fungicidal activity against Magnaporthe oryzae assessed as rice blast disease control at 2 ppm foliar application for 24 hr before inoculation at 27 +/- 2 degC measured after 5 days by preventive manner
[11] = test system: Blumeria graminis f. sp. tritici; test: Fungicidal activity against Blumeria graminis f. sp. tritici assessed as wheat powdery mildew disease control at 2 ppm foliar application for 48 hr after inoculation by curative manner
Podosphaera fuliginea [12] = test: Fungicidal activity against Podosphaera fuliginea assessed as cucumber powdery mildew control at 2 ppm foliar application 24 hr after inoculation at 23 +/- 2 degC by curative manner
[13] = test system: Pseudoperonospora cubensis; test: Fungicidal activity against Pseudoperonospora cubensis assessed as cucumber downy mildew disease control at 7.8 ppm foliar application 24 hr before inoculation onto the abaxial(untreated) surface of leaf by preventive manner
Botrytis cinerea [14] = test: Fungicidal activity against Botryotinia fuckeliana assessed as cucumber gray mold disease control at 2 ppm foliar application […] at 22 +/- 2 degC by curative manner
Pyricularia oryzae [15] = test: Fungicidal activity against Magnaporthe oryzae assessed as rice blast disease control at 31.3 ppm foliar application for 24 hr after inoculation at 27 +/- 2 degC measured after 5 days by curative manner
Podosphaera fuliginea [16] = test: Fungicidal activity against Podosphaera fuliginea assessed as cucumber powdery mildew control at 31.3 ppm foliar application 24 hr before inoculation at 23 +/- 2 degC by preventive manner
[17] = test system: Blumeria graminis f. sp. tritici; test: Fungicidal activity against Blumeria graminis f. sp. tritici assessed as wheat powdery mildew disease control at 31.3 ppm foliar application for 48 hr after inoculation by curative manner
Podosphaera fuliginea [18] = test: Fungicidal activity against Podosphaera fuliginea assessed as cucumber powdery mildew control at 31.3 ppm foliar application 24 hr after inoculation at 23 +/- 2 degC by curative manner
[19] = test system: Blumeria graminis f. sp. tritici; test: Fungicidal activity against Blumeria graminis f. sp. tritici assessed as wheat powdery mildew disease control at 7.8 ppm foliar application 48 24 hr before inoculation by preventive manner
Thanatephorus cucumeris [20] = test: Fungicidal activity against Thanatephorus cucumeris assessed as rice sheath blight disease control at 125 ppm foliar application for 24 hr before inoculation at 26 +/- 2 degC measured after 5 days by preventive manner
[21] = test system: Pseudoperonospora cubensis; test: Fungicidal activity against Pseudoperonospora cubensis assessed as cucumber downy mildew disease control at 31.3 ppm foliar application 24 hr before inoculation onto the abaxial(untreated) surface of leaf by preventive manner
[22] = test system: Pseudoperonospora cubensis; test: Fungicidal activity against Pseudoperonospora cubensis assessed as cucumber downy mildew disease control at 7.8 ppm foliar application 24 hr before inoculation onto the adaxial(treated) surface of leaf by preventive manner
Botrytis cinerea [23] = test: Fungicidal activity against Botryotinia fuckeliana assessed as cucumber gray mold disease control at 7.8 ppm foliar application […] at 22 +/- 2 degC by curative manner
Botrytis cinerea [24] = test: Fungicidal activity against Botryotinia fuckeliana assessed as cucumber gray mold disease control at 31.3 ppm foliar application […] at 22 +/- 2 degC by preventive manner
[25] = test system: Blumeria graminis f. sp. tritici; test: Fungicidal activity against Blumeria graminis f. sp. tritici assessed as wheat powdery mildew disease control at 7.8 ppm foliar application 48 hr after inoculation by curative manner
[26] = test system: Pseudoperonospora cubensis; test: Fungicidal activity against Pseudoperonospora cubensis assessed as cucumber downy mildew disease control at 125 ppm foliar application 24 hr before inoculation onto the abaxial(untreated) surface of leaf by preventive manner

Measured: Activity

CNC(=O)/C(=N/OC)c1ccccc1COc1cc(Cl)ccc1Cl
90%: Pyricularia oryzae [1] | Podosphaera fuliginea [2] | Botrytis cinerea [3] | [4] | Thanatephorus cucumeris [5] | [6] | [7]

CNC(=O)/C(=N/OC)c1ccccc1COc1cc(C)ccc1C
90%: Thanatephorus cucumeris [8] | Pyricularia oryzae [9] | Pyricularia oryzae [10] | Podosphaera fuliginea [2] | [11] | Botrytis cinerea [3] | Podosphaera fuliginea [12] | [4] | [13] | [7] | Botrytis cinerea [14]

CNC(=O)/C(=N/OC)c1ccccc1COc1ccccc1
90%: Pyricularia oryzae [15] | Pyricularia oryzae [1] | Podosphaera fuliginea [16] | [17] | Podosphaera fuliginea [18] | [19] | Thanatephorus cucumeris [20] | [21] | [22] | Botrytis cinerea [23] | Botrytis cinerea [24]

CNC(=O)/C(=N/OC)c1ccccc1COc1ccc(-c2ccccc2)cc1
90%: Pyricularia oryzae [9] | Pyricularia oryzae [10] | Podosphaera fuliginea [2] | [25] | Botrytis cinerea [3] | Podosphaera fuliginea [12] | [4] | Thanatephorus cucumeris [5] | [26] | [7] | Botrytis cinerea [23]

Source: ChEMBL document CHEMBL3046469, “Fungicidal Activities of 2-(Substituted Phenoxymethyl)phenyl-2-methoxyiminoacaetamide Derivatives” (1998)
